These results are taken from patent publication US20170143701A1, “CARBOHYDRATE METABOLISM-AMELIORATING AGENT” (SUNTORY HOLDINGS LIMITED, priority 2014, published 2017).

One assay has as its system NCI-H716 cells. As to the kind of experiment: In vitro GLP-1 secretion-accelerating action: amount of active GLP-1 secreted (ELISA). It counts as cell-based. The note with it: 1 hour; for Significant difference (p < 0.05) vs control group, amount of active GLP-1 secreted: 10 mM, Student's t-test; for Amount of active GLP-1 secreted (relative value to control group as 100), average value: cyclic dipeptide 10 mM with 10 μM Sitagliptin phosphate, group with no cyclic dipeptide = 100. On the procedure:
Among the cyclic dipeptides, 92 highly water-soluble cyclic dipeptides were used in the following experiment. In each well of a Poly-L-Lysine 96-well plate, NCI-H716 cells suspended in 100 μL of a DMEM (with 10% FBS, 2 mM glutamine, and 1% antibiotics added in advance) were seeded at 0.5×10^5 cells/well, and cultured in a CO2 incubator (manufactured by ESPEC CORP.) for 48 hours. After washing with PBS(+), 100 μL of a PBS(+) solution with each cyclic dipeptide at a final concentration of 10 mM and 10 μM of Sitagliptin phosphate added therein was added to the cells. After 1 hour, the resultant solution was recovered, and the amount of active GLP-1 in the solution was measured by using the ELISA kit. In the analysis, the amount of active GLP-1 for a group with no cyclic dipeptide added was defined as 100, and relative values thereto were used.
(In general: An ELISA detects its analyte on a solid surface through an enzyme-linked reagent.)

Another assay has as its system C57/BL6J mice. As to the kind of experiment: In vivo plasma GLP-1 level-increasing action: plasma active GLP-1 level (ELISA) after oral administration. The note with it: 10 mg/kg oral; for Significant difference (p < 0.05) vs control group, plasma active GLP-1 level: 30 minutes, Student's t-test; for Plasma active GLP-1 level (relative value to control group as 100), average value: blood 30 minutes after, 0.5% CMC-Na group = 100. The procedure: Seven-week-old male C57/BL6J mice were purchased from CLEA Japan, Inc. for use, and they were subjected to an experiment after 1 week of a habituation period.
After the habituation period, the mice were subjected to 5.5 hours of food deprivation and 2 hours of water deprivation. Thereafter, a cyclic dipeptide dissolved or suspended in a 0.5% CMC-Na aqueous solution in 10 mg/kg was orally administered to each mouse forcibly. After 30 minutes, the blood was collected from the abdominal vena cava under anesthesia, and 1 μL of heparin sodium and 1 μL of 10 mM Sitagliptin phosphate were added to each collected blood, which was then subjected to centrifugation at 8000 rpm for 10 minutes to recover the plasma, and the plasma active GLP-1 level was measured by using the ELISA kit. In the analysis, the active GLP-1 level for a group administered with 0.5% CMC-Na aqueous solution was defined as 100, and relative values thereto were used.

On to `NC(N)=NCCC[C@@H]1NC(=O)[C@H](CO)NC1=O` [compound 159, cyclo-arginyl-serine], for which, in the assay with NCI-H716 cells (Table 3, Experiment 3), the “Significant difference (p < 0.05) vs control group, amount of active GLP-1 secreted” value is listed as “Yes” and the “Amount of active GLP-1 secreted (relative value to control group as 100), average value” was 135. On to `NCCCC[C@@H]1NC(=O)[C@H](CC(N)=O)NC1=O` [compound 101, cyclo-asparaginyl-lysine], for which, in the assay on NCI-H716 cells (Table 3, Experiment 3), the “Significant difference (p < 0.05) vs control group, amount of active GLP-1 secreted” value is “Yes” and the “Amount of active GLP-1 secreted (relative value to control group as 100), average value” was 250. With `O=C1N[C@@H](Cc2c[nH]c3ccccc23)C(=O)N2CCC[C@@H]12` [compound 57, Cyclo(Trp-Pro)], in the assay with NCI-H716 cells (Table 2, Experiment 2), the “Significant difference (p < 0.05) vs control group, amount of active GLP-1 secreted” value is recorded as “No” and the “Amount of active GLP-1 secreted (relative value to control group as 100), average value” is reported as 81.

As to `O=C1CNC(=O)[C@H](CO)N1` [compound 154, Cyclo(Ser-Gly)], in the assay with NCI-H716 cells (Table 3, Experiment 3), the “Significant difference (p < 0.05) vs control group, amount of active GLP-1 secreted” value is listed as “No” and the “Amount of active GLP-1 secreted (relative value to control group as 100), average value” amounted to 116. The matching figures for `C[C@H](O)[C@@H]1NC(=O)[C@H](CCC(N)=O)NC1=O` [compound 167, Cyclo(Gln-Thr)]: “No” and 156. The corresponding values for `CC(C)[C@@H]1NC(=O)[C@H](CCCCN)NC1=O` [compound 99, cyclo-valyl-lysine] are “Yes” and 532. In the case of `CC[C@H](C)[C@@H]1NC(=O)[C@@H]2CCCN2C1=O` [compound 47, Cyclo(Ile-Pro)], in the assay with NCI-H716 cells (Table 2, Experiment 2), the “Significant difference (p < 0.05) vs control group, amount of active GLP-1 secreted” value is “No” and the “Amount of active GLP-1 secreted (relative value to control group as 100), average value” was found to be 79. Regarding `NC(N)=NCCC[C@@H]1NC(=O)CNC1=O` [compound 117, Cyclo(Arg-Gly)], in the assay with NCI-H716 cells (Table 3, Experiment 3), the “Significant difference (p < 0.05) vs control group, amount of active GLP-1 secreted” value is listed as “No” and the “Amount of active GLP-1 secreted (relative value to control group as 100), average value” is on record as 98.

In the case of `N=C(N)NCCC[C@@H]1NC(=O)[C@H](Cc2c[nH]c3ccccc23)NC1=O` [compound 189, cyclo-tryptophanyl-arginine], in the assay on NCI-H716 cells (Table 4, Experiment 4), the “Significant difference (p < 0.05) vs control group, amount of active GLP-1 secreted” value was “Yes” and the “Amount of active GLP-1 secreted (relative value to control group as 100), average value” worked out at 314. As for `O=C1NCC(=O)N2CCC[C@@H]12` [compound 4, cyclo-glycyl-proline], in the assay on NCI-H716 cells (Table 5, Experiment 5), the “Significant difference (p < 0.05) vs control group, amount of active GLP-1 secreted” value is on record as “Yes” and the “Amount of active GLP-1 secreted (relative value to control group as 100), average value” turned out to be 157. `O=C1N[C@@H](Cc2ccccc2)C(=O)N[C@H]1CO` [compound 7, Cyclo(Phe-Ser)]: in the assay with NCI-H716 cells (Table 1, Experiment 1), the “Significant difference (p < 0.05) vs control group, amount of active GLP-1 secreted” value was “No” and the “Amount of active GLP-1 secreted (relative value to control group as 100), average value” is on record as 106.

For `NCCCC[C@@H]1NC(=O)[C@H](CCC(N)=O)NC1=O` [compound 102, Cyclo(Gln-Lys)], in the assay on NCI-H716 cells (Table 3, Experiment 3), the “Significant difference (p < 0.05) vs control group, amount of active GLP-1 secreted” value was “No” and the “Amount of active GLP-1 secreted (relative value to control group as 100), average value” came to 112.

As to `CC(C)[C@@H]1NC(=O)[C@@H]2CCCN2C1=O` [compound 10, Cyclo(Val-Pro)], in the assay with NCI-H716 cells (Table 1, Experiment 1), the “Significant difference (p < 0.05) vs control group, amount of active GLP-1 secreted” value is listed as “No” and the “Amount of active GLP-1 secreted (relative value to control group as 100), average value” is 95.

For `CSCCC1NC(=O)C(C)NC1=O` (centres unmarked) [compound 125, cyclo-methionyl-alanine], the “Significant difference (p < 0.05) vs control group, plasma active GLP-1 level” value in the assay on C57/BL6J mice (Table 14, Experiment 9) is reported as “Yes”. `CC(C)C[C@@H]1NC(=O)[C@H](C)NC1=O` [compound 44, cyclo-alanyl-leucine]: in the assay with C57/BL6J mice (Table 8, Experiment 3), the “Significant difference (p < 0.05) vs control group, plasma active GLP-1 level” value was “Yes” and the “Plasma active GLP-1 level (relative value to control group as 100), average value” was 255.

For `CC(C)C1NC(=O)C(CC(=O)O)NC1=O` (centres unmarked) [compound 140, cyclo-valyl-aspartic acid], in the assay with C57/BL6J mice (Table 14, Experiment 9), the “Significant difference (p < 0.05) vs control group, plasma active GLP-1 level” value is “Yes” and the “Plasma active GLP-1 level (relative value to control group as 100), average value” was found to be 120.

In the case of `O=C1N[C@@H](Cc2ccccc2)C(=O)N[C@H]1Cc1ccccc1` [compound 17, cyclo-phenylalanyl-phenylalanine], in the assay on C57/BL6J mice (Table 8, Experiment 3), the “Significant difference (p < 0.05) vs control group, plasma active GLP-1 level” value is on record as “Yes” and the “Plasma active GLP-1 level (relative value to control group as 100), average value” is 203. The corresponding values for `O=C1N[C@@H](Cc2c[nH]c3ccccc23)C(=O)N[C@H]1Cc1ccc(O)cc1` [compound 22, cyclo-tryptophanyl-tyrosine] are “Yes” and 203. Turning to `N=C(N)NCCCC1NC(=O)C(Cc2ccc(O)cc2)NC1=O` (centres unmarked) [compound 94, Cyclo(Arg-Tyr)], in the assay on C57/BL6J mice (Table 12, Experiment 7), the “Significant difference (p < 0.05) vs control group, plasma active GLP-1 level” value was “No” and the “Plasma active GLP-1 level (relative value to control group as 100), average value” is recorded as 222. With `O=C1CNC(=O)[C@H](Cc2ccccc2)N1` [compound 8, Cyclo(Gly-Phe)], in the assay with C57/BL6J mice (Table 9, Experiment 4), the “Significant difference (p < 0.05) vs control group, plasma active GLP-1 level” value was “No” and the “Plasma active GLP-1 level (relative value to control group as 100), average value” worked out at 85. Consider `CC(C)[C@@H]1NC(=O)[C@H](Cc2c[nH]c3ccccc23)NC1=O` [compound 61, Cyclo(Trp-Val)], for which, in the assay on C57/BL6J mice (Table 8, Experiment 3), the “Significant difference (p < 0.05) vs control group, plasma active GLP-1 level” value is listed as “No” and the “Plasma active GLP-1 level (relative value to control group as 100), average value” is listed as 117. For `CC[C@H](C)[C@@H]1NC(=O)[C@H](CC(=O)O)NC1=O` [compound 162, cyclo-isoleucyl-aspartic acid], in the assay on C57/BL6J mice (Table 15, Experiment 10), the “Significant difference (p < 0.05) vs control group, plasma active GLP-1 level” value was “Yes” and the “Plasma active GLP-1 level (relative value to control group as 100), average value” was found to be 259. The corresponding values for `CC[C@H](C)C1NC(=O)[C@H](CC(N)=O)NC1=O` (some centres unmarked) [compound 163, cyclo-asparaginyl-isoleucine] are “Yes” and 327. On to `CC(C)C[C@@H]1NC(=O)[C@H](Cc2c[nH]c3ccccc23)NC1=O` [compound 39, cyclo-leucyl-tryptophan], for which, in the assay with C57/BL6J mice (Table 8, Experiment 3), the “Significant difference (p < 0.05) vs control group, plasma active GLP-1 level” value is reported as “Yes” and the “Plasma active GLP-1 level (relative value to control group as 100), average value” is reported as 229. `O=C(O)C[C@@H]1NC(=O)[C@H](Cc2ccccc2)NC1=O` [compound 33, Cyclo(Asp-Phe)]: in the assay on C57/BL6J mice (Table 9, Experiment 4), the “Significant difference (p < 0.05) vs control group, plasma active GLP-1 level” value is “No” and the “Plasma active GLP-1 level (relative value to control group as 100), average value” is 90. As to `O=C1CNC(=O)C(Cc2c[nH]c3ccccc23)N1` (centres unmarked) [compound 26, cyclo-glycyl-tryptophan], in the assay on C57/BL6J mice (Table 8, Experiment 3), the “Significant difference (p < 0.05) vs control group, plasma active GLP-1 level” value is “Yes” and the “Plasma active GLP-1 level (relative value to control group as 100), average value” is 264. On to `CC[C@H](C)[C@@H]1NC(=O)[C@H]([C@H](C)O)NC1=O` [compound 161, cyclo-isoleucyl-threonine], for which, in the assay on C57/BL6J mice (Table 15, Experiment 10), the “Significant difference (p < 0.05) vs control group, plasma active GLP-1 level” value is “Yes” and the “Plasma active GLP-1 level (relative value to control group as 100), average value” was found to be 282. With `CSCCC1NC(=O)C(CCCCN)NC1=O` (centres unmarked) [compound 70, Cyclo(Met-Lys)], in the assay on C57/BL6J mice (Table 10, Experiment 5), the “Significant difference (p < 0.05) vs control group, plasma active GLP-1 level” value is “No” and the “Plasma active GLP-1 level (relative value to control group as 100), average value” was 93. Take `CC(C)CC1NC(=O)C(CCC(=O)O)NC1=O` (centres unmarked) [compound 145, cyclo-glutamyl-leucine]: in the assay with C57/BL6J mice (Table 15, Experiment 10), the “Significant difference (p < 0.05) vs control group, plasma active GLP-1 level” value is listed as “Yes” and the “Plasma active GLP-1 level (relative value to control group as 100), average value” was 236. With `O=C1N[C@@H](CS)C(=O)N[C@H]1CO` [compound 180, cyclo-seryl-cysteine], in the assay on C57/BL6J mice (Table 15, Experiment 10), the “Significant difference (p < 0.05) vs control group, plasma active GLP-1 level” value is on record as “Yes” and the “Plasma active GLP-1 level (relative value to control group as 100), average value” is given as 259.
